According to ChEMBL document CHEMBL1201862, “PubChem BioAssay data set” (2004):
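Five compound concentrations were applied to cells in 96-well plates for 48 hours; endpoints were derived by simple linear interpolation of the resulting dose-response curve. At the GI50, growth is halved.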 Activity calls are given as the source filed them. Cut-off read from the data, not from the text of the source: active = GI50 up to about 1.1 µM and inactive = higher.

What was measured:
Test in all cases: NCI-60 cell line screen, 48 h
786-0 = tested on: 786-0
A549 = tested on: A549
BT-549 = tested on: BT-549
EKVX = tested on: EKVX
HCT-15 = tested on: HCT-15
HT-29 = tested on: HT-29
KM12 = tested on: KM12
M14 = tested on: M14
MDA-MB-231 = tested on: MDA-MB-231
MDA-MB-435 = tested on: MDA-MB-435
Malme-3M = tested on: Malme-3M
NCI-H226 = tested on: NCI-H226
NCI-H23 = tested on: NCI-H23
OVCAR-3 = tested on: OVCAR-3
SF-295 = tested on: SF-295
SK-MEL-28 = tested on: SK-MEL-28
SK-MEL-2 = tested on: SK-MEL-2
SK-OV-3 = tested on: SK-OV-3
SR = tested on: SR

SMILES	GI50 (786-0)	GI50 (A549)	GI50 (BT-549)	GI50 (EKVX)	GI50 (HCT-15) [µM]	GI50 (HT-29)	GI50 (KM12)	GI50 (M14)	GI50 (MDA-MB-231)	GI50 (MDA-MB-435)	GI50 (Malme-3M)	GI50 (NCI-H226)	GI50 (NCI-H23)	GI50 (OVCAR-3)	GI50 (SF-295)	GI50 (SK-MEL-28)	GI50 (SK-MEL-2)	GI50 (SK-OV-3)	GI50 (SR)
CCNC(C)(C)C(SS)c1ccc(Br)cc1 (stereo unspecified)	21.3 µM (inactive)	> 100 µM (inactive)	> 100 µM (inactive)	> 100 µM (inactive)	> 100	25.8 µM (inactive)	> 100 µM (inactive)	59.2 µM (inactive)	> 100 µM (inactive)	34.8 µM (inactive)	> 100 µM (inactive)	> 100 µM (inactive)	> 100 µM (inactive)	46.6 µM (inactive)	> 100 µM (inactive)	> 100 µM (inactive)	> 100 µM (inactive)	> 100 µM (inactive)	30.4 µM (inactive)
COC(=O)/C=C1/OC(c2ccc(Br)cc2)=C(Br)C1=O	2.4 µM (inactive)	16 µM (inactive)	5.28 µM (inactive)	13.2 µM (inactive)	5.14	4.29 µM (inactive)	8.07 µM (inactive)	4.93 µM (inactive)	2.43 µM (inactive)	7.67 µM (inactive)	7.94 µM (inactive)	14.4 µM (inactive)	6.7 µM (inactive)	4.35 µM (inactive)	14.1 µM (inactive)	12 µM (inactive)	10.6 µM (inactive)	19.9 µM (inactive)	0.179 µM (active)
COc1ccccc1C1C2=C(COC2=O)OC(C)(C)Oc2cc3c(cc21)OCO3 (stereo unspecified)	3.83 µM (inactive)	5.13 µM (inactive)	> 10 µM (inactive)	3.56 µM (inactive)	3.23	3.47 µM (inactive)	1.11 µM (active)	3.18 µM (inactive)	2.86 µM (inactive)	0.564 µM (active)	3.89 µM (inactive)	10.3 µM (inactive)	3.89 µM (inactive)	2.73 µM (inactive)	2.67 µM (inactive)	7.28 µM (inactive)	4.06 µM (inactive)	4 µM (inactive)	3.44 µM (inactive)
CCOC(=O)C1=C(C)N(C)C23OC4(C(=O)OC)CC2c2ccccc2C1N3C4=O (stereo unspecified)	> 100 µM (inactive)	> 100 µM (inactive)	> 100 µM (inactive)	> 100 µM (inactive)	63.7	51.9 µM (inactive)	84.5 µM (inactive)	73.8 µM (inactive)	> 100 µM (inactive)	30.8 µM (inactive)	> 100 µM (inactive)	> 100 µM (inactive)	> 100 µM (inactive)	> 100 µM (inactive)	39.3 µM (inactive)	> 100 µM (inactive)	> 100 µM (inactive)	> 100 µM (inactive)	16.5 µM (inactive)
Cc1cc(S(=O)(=O)Nc2nc(Nc3ccccc3)n[nH]2)c(SCC(=O)O)cc1Cl	> 100 µM (inactive)	> 100 µM (inactive)	> 100 µM (inactive)	> 100 µM (inactive)	> 100	> 100 µM (inactive)	> 100 µM (inactive)	> 100 µM (inactive)	> 100 µM (inactive)	> 100 µM (inactive)	> 100 µM (inactive)	> 100 µM (inactive)	> 100 µM (inactive)	> 100 µM (inactive)	> 100 µM (inactive)	> 100 µM (inactive)	> 100 µM (inactive)	> 100 µM (inactive)	> 100 µM (inactive)
NS(=O)(=O)c1cc(Cl)c(NC(=S)NC(=O)Nc2ccc(Cl)c(Cl)c2)c(Cl)c1	39 µM (inactive)	30.5 µM (inactive)	55.2 µM (inactive)	28.4 µM (inactive)	40.9	46.8 µM (inactive)	34.7 µM (inactive)	27.5 µM (inactive)	50.1 µM (inactive)	32.7 µM (inactive)	68.1 µM (inactive)	30.8 µM (inactive)	31.6 µM (inactive)	39.6 µM (inactive)	37.8 µM (inactive)	84.3 µM (inactive)	25.5 µM (inactive)	77.4 µM (inactive)	36.2 µM (inactive)
CN(C)/N=N/c1nc2c(c(=O)n(C)c(=O)n2C)n1C	> 100 µM (inactive)	> 100 µM (inactive)	> 100 µM (inactive)	> 100 µM (inactive)	> 100	> 100 µM (inactive)	> 100 µM (inactive)	> 100 µM (inactive)	> 100 µM (inactive)	> 100 µM (inactive)	> 100 µM (inactive)	> 100 µM (inactive)	–	> 100 µM (inactive)	> 100 µM (inactive)	> 100 µM (inactive)	> 100 µM (inactive)	> 100 µM (inactive)	4.04 µM (inactive)
O=C1c2ccccc2C(=O)N1CCCC(=O)n1cc(F)c(=O)[nH]c1=O	14.4 µM (inactive)	3.6 µM (inactive)	> 100 µM (inactive)	> 58.3 µM (inactive)	8.41	4.54 µM (inactive)	6.73 µM (inactive)	14.5 µM (inactive)	> 100 µM (inactive)	> 37.1 µM (inactive)	27.9 µM (inactive)	38.5 µM (inactive)	11.9 µM (inactive)	> 22.7 µM (inactive)	49.1 µM (inactive)	> 100 µM (inactive)	> 100 µM (inactive)	> 91 µM (inactive)	5.53 µM (inactive)
